How the values were obtained:
As #41 = assay: RIA (Assay 2): competition with iodinated inhibin for As #41; type: binding, sheep
Procedure, shortened: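 Graded doses of peptide or hr-inhibin standard competed with iodinated human recombinant 30 kDa inhibin tracer for the sheep antiserum at a set dilution, overnight at 4°C. Bound tracer was precipitated with goat anti-sheep IgG and gamma-counted. ED50 is the dose producing 50% loss of tracer binding.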

As#128 and/or As#41 = assay: Inhibin IFMA with pre-immunoabsorption of antisera by peptides; type: binding, sheep
From the text: This IFMA is used in the measurement of inhibin in serum from women with ovarian cancer and is presented at this juncture as a reference to the following procedures. The IFMA is a sandwich antibody assay in 96-well microtiter plates. The capture antiserum is As #128 and the labeled antiserum As #41, both raised in sheep to the alpha subunit of human inhibin. Sheep As #128 was also boosted with human recombinant 30-kDa inhibin. The microtiter plates were coated with a caprylic acid IgG cut of antiserum #128. Inhibin standard and serum samples were added and incubated for 2 hours at room temperature. A biotinylated antiserum (As #41) which has been immunopurified by absorption to a column of bovine (alpha)C subunit fusion protein (as previously described, Robertson et al., 1997, supra) followed by elution with a glycine (pH 2.5) buffer, was added to bind to the antibody-bound inhibin (2-hour incubation at room temperature). Fluorescently (Eu) labeled-streptavidin that has a high affinity for biotin is added (30 minutes at room temperature) and the Eu-bound streptavidin is counted in a time-resolved fluorimeter. The Eu measured is proportional to the inhibin bound by the two antisera.
As another approach, the competition of combinations of peptides at a maximum saturating dose was assessed in the IFMA (FIGS. 7-9). […] This suppression in binding provides a measure of the contribution of that particular epitope to the assay.

SGSG WSPSALRLLQRPPE [Peptide 5] was tested, and the “As#41 ED50” value (As #41; biotinylated peptides, 50% fall in binding of iodinated inhibin) was 0.015 nM, the “cross-reaction with hr-inhibin for As #41 in RIA” value (As #41; in words) was “cross-reacted strongly” and the “ED50 values As#41” value (As #41; non-biotinylated peptides, hr-inhibin A as standard) was 0.4 nM. For the same substance, the “% suppression at 2ng inhibin” value (As#128 and/or As#41; As#41 label pre-absorbed with peptide, As#128 coating antibody: buffer) was 67%, the “% suppression at 2ng inhibin” value (As#128 and/or As#41; As#128 coating antibody pre-absorbed with peptide(s), As#41 label: buffer) was 55% and the “% suppression at 2ng inhibin” value (As#128 and/or As#41; both antisera pre-absorbed, label gives peptide(s) on As#128 coating first, then on As#41 label) was 73%.

Reference: patent US7511123B2, “Immuno-interactive fragments of the alpha-C subunit of inhibin” (Prince Henry's Institute of Medical Research, priority 1999, dated 2009)
